{"source": "patent US9512176B2", "about": "“Age inhibitors” (Centre National de la Recherche Scientifique, priority 2005, dated 2016)", "key": {"[1]": {"tested_on": "seven strains of Salmonella (six mixed strains, strain TA98)", "experiment": "Ames test with and without human liver S9 fractions", "format": "cell-based", "parameters": "key to Six mixed strains / Strain TA98: −: non-mutagenic; +: mutagenic", "details": "for Six mixed strains / Strain TA98: mixture with methylglyoxal, 10/1/0.1 μM", "procedure": "An Ames test was performed with L-DAPA-L-Leu (example 1) and L-DAPA-L-Val (example 23) alone and in combination with methylglyoxal on human liver S9 fractions and on seven strains of Salmonella.\nThe concentrations used in the Ames test were as follows: • L-DAPA-L-Leu alone or L-DAPA-L-Val alone: 10 μM, 1 μM and 0.1 μM. • L-DAPA-L-Leu/methylglyoxal mixture or L-DAPA-L-Val/methylglyoxal mixture: 10 μM, 1 μM and 0.1 μM. • Methylglyoxal: 10 μM."}, "somatostatin-14": {"tested_on": "somatostatin-14", "experiment": "Somatostatin-14 modifications induced by methylglyoxal (HPLC)", "format": "biochemical", "details": "somatostatin-14 0.03 mm, methylglyoxal 3.6 mM, compound 4.3 mM, 24 hours at 37° C.", "procedure": "FIGS. 9 and 10 present the results obtained by HPLC for two compounds according to the present invention, L-DAPA-L-Leu (example 1) and L-DAPA-L-Val (example 23), on somatostatin-14 modifications induced by methylglyoxal. HPLC conditions are as follows: C-18, Symmetry 300 (4.6×250 mm) column, injection volume 100 μl of reaction mixture; flow 1 ml/min; solvent A: H2O+0.1% TFA; solvent B: 80/20 CH3CN/H2O+0.1% TFA; linear gradient: from 20% B to 60% B in 15 minutes and isocratic from 60% B for 10 minutes; ambient temperature; detection: PDA (chromatograms extracted at 215 nm).\nIn these figures, (a) represents the results of somatostatin-14 alone; (b) represents the results of somatostatin-14+methylglyoxal; (c) represents the results of somatostatin-14+methylglyoxal+L-DAPA-L-Val (example 23) and (d) represents the results of somatostatin-14+methylglyoxal+L-DAPA-L-Leu (example 1)."}}, "note": "Non-standard residues stand in square brackets, D forms with d. Residues, ends and D or L forms follow the SMILES beside them. Dap = NC[C@H](N)C(=O)O", "data": [{"smiles": "CC(C)C[C@H](NC(=O)[C@@H](N)CN)C(=O)O", "note": "[example 1, L-DAPA-L-Leu.2HCl] (H-[Dap]-Leu-OH)", "values": [{"measurement": "Six mixed strains", "setting": "[1]; Human S9: No", "result": "−"}, {"measurement": "Strain TA98", "setting": "[1]; Human S9: No", "result": "−"}, {"measurement": "Six mixed strains", "setting": "[1]; Human S9: Yes (metabolites)", "result": "−"}, {"measurement": "Strain TA98", "setting": "[1]; Human S9: Yes (metabolites)", "result": "−"}, {"measurement": "mutagenicity", "setting": "[1]; alone or in combination with methylglyoxal, TA98, mixed strains, human liver S9 fractions", "result": "neither substance (L-DAPA-L-Leu or L-DAPA-L-Val) was mutagenic"}, {"measurement": "somatostatin-14 modifications induced by methylglyoxal", "setting": "somatostatin-14", "result": "prevent the modifications induced by methylglyoxal"}]}]}
